Patent publication US20200246317A1, “METHODS OF TREATING DIABETIC NEUROPATHY WITH A THIAZOLINE ANTI-HYPERALGESIC AGENT” (CERSCI THERAPEUTICS, INC., priority 2019, published 2020)

Tested on: streptozotocin (STZ)-induced diabetic rats
Assay: Mechanical thresholds in streptozotocin (STZ)-induced diabetic rats
Type: in vivo, rat
Experimental: Experiments were conducted to determine the effect of Compound 1 in streptozotocin (STZ)-induced diabetic rats. In the first experiment, after obtaining mechanical threshold baselines, STZ (50 mg/kg IV) was administered (Day −7). Two days later, blood glucose levels were measured and animals that were hyperglycemic (>250 mg/dL) continued in the study. On Day 0 the baseline for mechanical thresholds prior to dosing with test articles was established for the rats. Compound 1 (10, 30, and 100 mg/kg PO), gabapentin (100 mg/kg PO) or vehicle was then administered daily for 5 days. On Day 0 mechanical thresholds were obtained at 1, 3, and 6 h post-dose. On Day 1 mechanical thresholds were measured immediately prior to dosing and then 3 h post-dose. The same regimen was followed on Day 3.
In a subsequent study, the same STZ paradigm was followed. However, in addition to the 100 mg/kg Compound 1 group, two additional cohorts received the Compound 1 100 mg/kg dose split into two or three doses per day with 50 mg/kg BID and 33 mg/kg TID. In addition to the gabapentin (100 mg/kg PO) group, a separate cohort received duloxetine (30 mg/kg PO). Additionally, in this study mechanical threshold testing was implemented every day immediately prior to dosing and 2 h post-dose for 7 days.

[1] = subsequent study, 7 days, Compound 1 100 mg/kg QD, 50 mg/kg BID, 33 mg/kg TID, gabapentin 100 mg/kg PO, duloxetine 30 mg/kg PO

Compound	reversal of allodynia (mechanical threshold) (first experiment, Compound 1 10, 30, 100 mg/kg PO, gabapentin 100 mg/kg PO daily, Day 0 (gabapentin: 1 h post-dose on Day 0 and all time points thereafter))	reversal of allodynia (mechanical threshold) [1]
NCC1(CC(=O)O)CCCCC1 [gabapentin, reference compound]	significant reversal of allodynia	robustly reversed the allodynia throughout the study
CNCC[C@H](Oc1cccc2ccccc12)c1cccs1 [duloxetine, reference compound]		required successive doses for appreciable activity
